Columns and labels:
Assay type in all cases: cell-based
[1] = tested on: LN229 cells expressing GFP-LC3; assay: Cell counting of LN229 GFP-LC3 cells (Coulter Z2 particle analyzer, confirmed by trypan blue exclusion); settings: 5 nM rapamycin and/or 5 μM chloroquine, FIG. 1
Experimental: Cell lines, transfection, and cell counting: LN229 cells were grown in DMEM supplemented with 10% heat-inactivated fetal bovine serum (Gemini Biosciences, Woodland, Calif.), 10 units/ml penicillin/streptomycin, and 2 mM L-glutamine (Invitrogen Corporation). LN229 cells were transfected with lipofectamine 2000 (Invitrogen) according to manufacturer protocol. Stable transfectants were selected with neomycin (Gibco), and high fluorescence clones of LN229 GFP-LC3 were selected by limiting dilution. For all in vitro experiments media+supplements and drugs treatments were changed daily. Cell number was assessed by using a Coulter Z2 particle analyzer and confirmed by trypan blue exclusion.

[2] = tested on: LN229 GFP-LC3 cells; assay: Fluorescence microscopy of GFP-LC3 puncta (autophagosome accumulation); settings: increasing doses; 48 hours of treatment; FIG. 2
Experimental: Punctate flouresence indicates the accumulation of LC3-positive autophagosomes.
Fluorescence Microscopy: Cells were grown in sterile glass coverslips and treated in full medium as indicated above. After 48 hours of treatment cells were fixed with 4% paraformaldehyde and imaged using a Nikon upright fluorescent microscope. Images were captured at 100× and representative images were reported.

[3] = tested on: LN229 GFP-LC3 cells; assay: Electron microscopy of autophagic vesicles; settings: FIG. 3
Excerpt: Cells were postfixed with 2% osmium tetroxide followed by an increasing gradient dehydration step using ethanol and propylene oxide.

For CO[C@H]1C[C@@H]2CC[C@@H](C)[C@@](O)(O2)C(=O)C(=O)N2CCCC[C@H]2C(=O)O[C@H]([C@H](C)C[C@@H]2CC[C@@H](O)[C@H](OC)C2)CC(=O)[C@H](C)/C=C(\C)[C@@H](O)[C@@H](OC)C(=O)[C@H](C)C[C@H](C)/C=C/C=C/C=C/1C [rapamycin], the cell number [1] was “decrease in cell number”, the “accumulation of LC3-positive autophagosomes (punctate fluorescence)” value [2] was “accumulated LC3-positive autophagosomes” and the “autophagosomes in electron micrographs” value [3] was “autophagosomes are observed”.
With CCN(CC)CCCC(C)Nc1ccnc2cc(Cl)ccc12 (centres unmarked) [chloroquine] the cell number [1] was “decrease in cell number” and the “accumulation of LC3-positive autophagosomes (punctate fluorescence)” value [2] was “accumulated LC3-positive autophagosomes”.

— patent publication US8716307B2, “Combination antineoplastic therapy” (The Trustees Of The University of Pennsylvania, priority 2009, dated 2014)
